In patent US20060069132A1, “Azolecarboxamide herbicides” (priority 2004, published 2006):

Assays:
barnyardgrass [1] = assay: Test B pre-/postemergence herbicide test; type: in vivo, Echinochloa crus-galli
Procedure, shortened: (§1)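 Response was scored visually 13 to 15 days after treatment against untreated greenhouse controls, 0 meaning no effect and 100 complete control. Formulations (solvent mixture plus surfactant) went onto soil after planting, onto foliage of 1- to 4-leaf plants, and onto 2-leaf plants in a flooded paddy set including rice and barnyardgrass.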

cocklebur = assay: Test B pre-/postemergence herbicide test; type: in vivo, Xanthium strumarium
Procedure, shortened: as §1

corn = assay: Test B pre-/postemergence herbicide test; type: in vivo, Zea mays
Procedure, shortened: (§2)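 Greenhouse pot assay with simultaneous preemergence (treated seed) and postemergence (2–18 cm seedlings) applications of surfactant-containing, non-phytotoxic solvent formulations. Response scored visually 13–15 days later on a 0–100 scale, 100 meaning complete control.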

giant foxtail = assay: Test B pre-/postemergence herbicide test; type: in vivo, Setaria faberi
Procedure, shortened: as §2

lambsquarters = assay: Test B pre-/postemergence herbicide test; type: in vivo, Chenopodium album
Procedure, shortened: as §2

morningglory = assay: Test B pre-/postemergence herbicide test; type: in vivo, Ipomoea coccinea
Procedure, shortened: as §1

pigweed = assay: Test B pre-/postemergence herbicide test; type: in vivo, Amaranthus retroflexus
Procedure, shortened: as §2

velvetleaf = assay: Test B pre-/postemergence herbicide test; type: in vivo, Abutilon theophrasti
Procedure, shortened: as §2

blackgrass = assay: Test B postemergence herbicide test; type: in vivo, Alopecurus myosuroides
Procedure, shortened: (§3)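 Visual control ratings, 0–100 versus untreated controls, taken after 13 to 15 days in the greenhouse. Blackgrass received a postemergence spray at the 1- to 4-leaf stage (2–18 cm); ducksalad, umbrella sedge and barnyardgrass were flooded-paddy treated at 2 leaves.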

wheat = assay: Test B postemergence herbicide test; type: in vivo, Triticum aestivum; parameters: key to Wheat plant response rating: 0 = no effect, 100 = complete control
Procedure, shortened: (§4)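 After treating 2-leaf paddy plants or 2–18 cm postemergence plants (1 to 4 leaves) with formulated chemical, researchers kept them in a greenhouse for 13–15 days. Effects were judged visually versus controls: 0 indicates none, 100 total control.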

wild oat = assay: Test B postemergence herbicide test; type: in vivo, Avena fatua
Procedure, shortened: as §4

rice = assay: Test B flooded paddy test; type: in vivo, Oryza sativa; details: 1000 g ai/ha, scale 0 to 100 (0 no effect, 100 complete control)
Procedure, shortened: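 Greenhouse test; postemergence application to plants at 1–4 leaves (2–18 cm); paddy species at 2 leaves; evaluated visually vs controls at 13–15 days; scale 0–100 (100 = complete control).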

[2] = test system: small flower umbrella sedge; assay: Test B flooded paddy test; type: in vivo, Cyperus difformis; details: 1000 g ai/ha, scale 0 to 100 (0 no effect, 100 complete control)
Procedure, shortened: as §3

ducksalad = assay: Test B flooded paddy test; type: in vivo, Heteranthera limosa; details: 1000 g ai/ha, scale 0 to 100 (0 no effect, 100 complete control)
Procedure, shortened: as §3

barnyardgrass [3] = assay: Test B flooded paddy test; type: in vivo, Echinochloa crus-galli; details: 1000 g ai/ha, scale 0 to 100 (0 no effect, 100 complete control)
Procedure, shortened: as §3

[4] = 125 g ai/ha; 0 = no effect, 100 = complete control; preemergence
[5] = 500 g ai/ha; visual rating 0-100, 0 no effect, 100 complete control; preemergence
[6] = postemergence, 125 g ai/ha; visual rating, scale 0 (no effect) to 100 (complete control)
[7] = postemergence, 500 g ai/ha; visual rating, scale 0 (no effect) to 100 (complete control)
[8] = 500 g ai/ha; visual rating, 0 = no effect, 100 = complete control; preemergence
[9] = postemergence, 500 g ai/ha; scale 0 to 100, 0 is no effect, 100 is complete control
[10] = 125 g ai/ha; visual rating, scale 0 (no effect) to 100 (complete control); postemergence

In the case of `CCc1nc(C(C)(C)C)sc1C(=O)Nc1cccc(C(=O)N(CC)CC)c1` [Compound 205], the “Barnyardgrass plant response rating (0 to 100 scale)” value (barnyardgrass [1]; [4]) is reported as 50, the “Plant response rating, Barnyardgrass” value (barnyardgrass [1]; [5]) is reported as 90 and the “Barnyardgrass plant response rating” value (barnyardgrass [1]; [6]) is reported as 10. The “Barnyardgrass plant response rating” value (barnyardgrass [1]; [7]) was 20, the “Cocklebur plant response rating (0 to 100 scale)” value (cocklebur; [4]) was 10 and the “Plant response rating, Cocklebur” value (cocklebur; [5]) was 20. The “Cocklebur plant response rating” value (cocklebur; [6]) was 40, the “Cocklebur plant response rating” value (cocklebur; [7]) was 80 and the “Corn plant response rating (0 to 100 scale)” value (corn; [4]) was 10. The “Plant response rating, Corn” value (corn; [5]) was 40, the “Corn plant response rating” value (corn; [6]) was 20 and the “Corn plant response rating” value (corn; [7]) was 20. For the same compound, the “Foxtail, Giant plant response rating (0 to 100 scale)” value (“Foxtail … (0 to 100 scale)” below) (giant foxtail; [4]) was 50, the “Plant response rating, Foxtail, Giant” value (giant foxtail; [5]) was 100 and the “Foxtail, Giant plant response rating” value (giant foxtail; [6]) was 20. The “Foxtail, Giant plant response rating” value (giant foxtail; [7]) was 30, the “Lambsquarters plant response rating (0 to 100 scale)” value (lambsquarters; [4]) was 80 and the “Plant response rating, Lambsquarters” value (lambsquarters; [5]) was 100. For the same compound, the “Lambsquarters plant response rating” value (lambsquarters; [6]) was 60, the “Lambsquarters plant response rating” value (lambsquarters; [7]) was 70 and the “Morningglory plant response rating (0 to 100 scale)” value (morningglory; [4]) was 0. For the same compound, the “Plant response rating, Morningglory” value (morningglory; [5]) was 30, the “Morningglory plant response rating” value (morningglory; [6]) was 30 and the “Morningglory plant response rating” value (morningglory; [7]) was 50. The “Pigweed plant response rating (0 to 100 scale)” value (pigweed; [4]) was 100, the “Plant response rating, Pigweed” value (pigweed; [5]) was 100 and the “Pigweed plant response rating” value (pigweed; [6]) was 40. For the same compound, the “Pigweed plant response rating” value (pigweed; [7]) was 50, the “Velvetleaf plant response rating (0 to 100 scale)” value (velvetleaf; [4]) was 30 and the “Plant response rating, Velvetleaf” value (velvetleaf; [5]) was 80. For the same compound, the “Velvetleaf plant response rating” value (velvetleaf; [6]) was 20, the “Velvetleaf plant response rating” value (velvetleaf; [7]) was 40 and the “Blackgrass plant response rating” value (blackgrass; [6]) was 0. The “Blackgrass plant response rating” value (blackgrass; [7]) was 20, the “Wheat plant response rating” value (wheat; [6]) was 10 and the “Wheat plant response rating” value (wheat; [7]) was 20. The “Oat, Wild plant response rating” value (wild oat; [6]) was 20, the “Oat, Wild plant response rating” value (wild oat; [7]) was 30 and the “Rice plant response rating” value (rice; visual rating, 13 to 15 days) was 60. For the same compound, the “Sedge, Umbrella plant response rating” value ([2]; visual rating, 13 to 15 days) was 60, the “Ducksalad plant response rating” value (ducksalad; visual rating, 13 to 15 days) was 50 and the “Barnyardgrass plant response rating” value (barnyardgrass [3]; visual rating, 13 to 15 days) was 70.

For `CCNC(=O)c1ccc(F)c(NC(=O)c2cc(C(C)(C)C)nn2CC)n1` [Compound 278], the “Barnyardgrass plant response rating (0 to 100 scale)” value (barnyardgrass [1]; [4]) was 30, the “Plant response rating, Barnyardgrass” value (barnyardgrass [1]; [8]) was 80 and the “Barnyardgrass plant response rating” value (barnyardgrass [1]; [6]) was 0. For the same compound, the “Barnyardgrass plant response rating” value (barnyardgrass [1]; [9]) was 10, the “Cocklebur plant response rating (0 to 100 scale)” value (cocklebur; [4]) was 0 and the “Plant response rating, Cocklebur” value (cocklebur; [8]) was 0. For the same compound, the “Cocklebur plant response rating” value (cocklebur; [6]) was 10, the “Cocklebur plant response rating” value (cocklebur; [9]) was 30 and the “Corn plant response rating (0 to 100 scale)” value (corn; [4]) was 0. The “Plant response rating, Corn” value (corn; [8]) was 20, the “Corn plant response rating” value (corn; [6]) was 10 and the “Corn plant response rating” value (corn; [9]) was 20. The “Foxtail … (0 to 100 scale)” value (giant foxtail; [4]) was 20, the “Plant response rating, Foxtail, Giant” value (giant foxtail; [8]) was 80 and the “Foxtail, Giant plant response rating” value (giant foxtail; [6]) was 0. For the same compound, the “Foxtail, Giant plant response rating” value (giant foxtail; [9]) was 10, the “Lambsquarters plant response rating (0 to 100 scale)” value (lambsquarters; [4]) was 100 and the “Plant response rating, Lambsquarters” value (lambsquarters; [8]) was 100. For the same compound, the “Lambsquarters plant response rating” value (lambsquarters; [6]) was 20, the “Lambsquarters plant response rating” value (lambsquarters; [9]) was 30 and the “Morningglory plant response rating (0 to 100 scale)” value (morningglory; [4]) was 0. For the same compound, the “Plant response rating, Morningglory” value (morningglory; [8]) was 10, the “Morningglory plant response rating” value (morningglory; [6]) was 0 and the “Morningglory plant response rating” value (morningglory; [9]) was 20. For the same compound, the “Pigweed plant response rating (0 to 100 scale)” value (pigweed; [4]) was 100, the “Plant response rating, Pigweed” value (pigweed; [8]) was 100 and the “Pigweed plant response rating” value (pigweed; [6]) was 10. The “Pigweed plant response rating” value (pigweed; [9]) was 40, the “Velvetleaf plant response rating (0 to 100 scale)” value (velvetleaf; [4]) was 0 and the “Plant response rating, Velvetleaf” value (velvetleaf; [8]) was 60. The “Velvetleaf plant response rating” value (velvetleaf; [6]) was 10, the “Velvetleaf plant response rating” value (velvetleaf; [9]) was 10 and the “Blackgrass plant response rating” value (blackgrass; [6]) was 20. For the same compound, the “Blackgrass plant response rating” value (blackgrass; [9]) was 30, the “Wheat plant response rating” value (wheat; [6]) was 30 and the “Wheat plant response rating” value (wheat; [9]) was 30. For the same compound, the “Oat, Wild plant response rating” value (wild oat; [6]) was 20, the “Oat, Wild plant response rating” value (wild oat; [9]) was 30 and the “Rice plant response rating” value (rice) was 60. The “Sedge, Umbrella plant response rating” value [2] was 70, the “Ducksalad plant response rating” value (ducksalad) was 80 and the “Barnyardgrass plant response rating” value (barnyardgrass [3]) was 60.

`CCn1nc(C(C)(C)C)cc1C(=O)Nc1ccc(OC)c(OC)c1` [Compound 298] was tested, and the “Barnyardgrass plant response rating (0 to 100 scale)” value (barnyardgrass [1]; [4]) was 70, the “Barnyardgrass plant response rating” value (barnyardgrass [1]; [10]) was 10 and the “Plant response rating, Barnyardgrass” value (barnyardgrass [1]; [8]) was 90. The “Barnyardgrass plant response rating” value (barnyardgrass [1]; [9]) was 50, the “Cocklebur plant response rating (0 to 100 scale)” value (cocklebur; [4]) was 0 and the “Cocklebur plant response rating” value (cocklebur; [10]) was 20. The “Plant response rating, Cocklebur” value (cocklebur; [8]) was 0, the “Cocklebur plant response rating” value (cocklebur; [9]) was 50 and the “Corn plant response rating (0 to 100 scale)” value (corn; [4]) was 30. For the same compound, the “Corn plant response rating” value (corn; [10]) was 0, the “Plant response rating, Corn” value (corn; [8]) was 70 and the “Corn plant response rating” value (corn; [9]) was 10. For the same compound, the “Foxtail … (0 to 100 scale)” value (giant foxtail; [4]) was 80, the “Foxtail, Giant plant response rating” value (giant foxtail; [10]) was 10 and the “Plant response rating, Foxtail, Giant” value (giant foxtail; [8]) was 100. For the same compound, the “Foxtail, Giant plant response rating” value (giant foxtail; [9]) was 50, the “Lambsquarters plant response rating (0 to 100 scale)” value (lambsquarters; [4]) was 100 and the “Lambsquarters plant response rating” value (lambsquarters; [10]) was 40. For the same compound, the “Plant response rating, Lambsquarters” value (lambsquarters; [8]) was 100, the “Lambsquarters plant response rating” value (lambsquarters; [9]) was 90 and the “Morningglory plant response rating (0 to 100 scale)” value (morningglory; [4]) was 10. For the same compound, the “Morningglory plant response rating” value (morningglory; [10]) was 60, the “Plant response rating, Morningglory” value (morningglory; [8]) was 40 and the “Morningglory plant response rating” value (morningglory; [9]) was 70. For the same compound, the “Pigweed plant response rating (0 to 100 scale)” value (pigweed; [4]) was 100, the “Pigweed plant response rating” value (pigweed; [10]) was 80 and the “Plant response rating, Pigweed” value (pigweed; [8]) was 100. For the same compound, the “Pigweed plant response rating” value (pigweed; [9]) was 90, the “Velvetleaf plant response rating” value (velvetleaf; [10]) was 60 and the “Plant response rating, Velvetleaf” value (velvetleaf; [8]) was 60. The “Velvetleaf plant response rating” value (velvetleaf; [9]) was 60, the “Blackgrass plant response rating” value (blackgrass; [10]) was 20 and the “Blackgrass plant response rating” value (blackgrass; [9]) was 50. The “Wheat plant response rating” value (wheat; [10]) was 20, the “Wheat plant response rating” value (wheat; [9]) was 30 and the “Oat, Wild plant response rating” value (wild oat; [10]) was 30. The “Oat, Wild plant response rating” value (wild oat; [9]) was 40, the “Rice plant response rating” value (rice) was 80 and the “Sedge, Umbrella plant response rating” value [2] was 70. For the same compound, the “Ducksalad plant response rating” value (ducksalad) was 90 and the “Barnyardgrass plant response rating” value (barnyardgrass [3]) was 90.
